Measurements: patent US11162902B2, “Metasurfaces comprised of nanosphere oligomers with uniform narrow gap spacings, their method of fabrication and applications in sensing” (The Regents of the University of California, priority 2017, dated 2021)
In brackets after ≈: the same amount, converted by molar mass.

Experiments:
[1] = system: P. aeruginosa strain PA14; details: cited from earlier work
P. aeruginosa biofilms = test: Antibiotic susceptibility measurements of surface-attached bacteria / biofilms (live/dead staining, dead cell fraction); format: cell-based, Pseudomonas aeruginosa; details: 600 μg·mL^−1 carbenicillin in PBS for 3 h; growth 6, 10, 15, 24 h; FIG. 18E

Structure (SMILES): CC1(C)S[C@@H]2[C@H](NC(=O)C(C(=O)O)c3ccccc3)C(=O)N2[C@H]1C(=O)O (some centres unmarked) [carbenicillin]
- minimum inhibitory concentration [1]: 128 µg/mL (≈ 338 µM)
- antibiotic susceptibility of surface-attached bacteria at different stages of biofilm growth (P. aeruginosa biofilms): susceptibility decreased significantly with increasing growth time
